Target: Phosphodiesterase 4 (Homo sapiens, UniProt P27815+Q08499+Q07343+Q08493)
Assay: Inhibition of PDE4 in Homo sapiens (human) U937 cells
Type: cell-based
Conditions: u-937

Row | pIC50 | Compound
1 | 5 | COc1ccc(C(=O)Nc2c(Cl)cncc2Cl)c2c1ncn2C
2 | 6.678 | CO/N=C(\C)c1ccc2c(C(=O)Nc3c(Cl)cncc3Cl)ccc(OC)c2n1

— ChEMBL document CHEMBL3046464, “3D quantitative structureactivity relationship for quinoline, benzimidazole and benzofuran-based analogs as phosphodiesterases IV (PDE-IV) inhibitors” (Med Chem Res, 2013)
